Reference: PubChem BioAssay AID1963976 (Molecular Pharmacology Branch, DTP, NCI, 2024)

System: 435261-313-R-J1-PDC tumor spheroid viability
Test: Anticancer human tumor 435261-313-R-J1-PDC patient-derived colon adenocarcinoma cell line growth inhibition [PI3K]
Settings: spheroids with HUVEC and MSC; for IC50: curve of first compound; for viability, T/C: stronger effect = lower value
Summary of the method: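 Tumor cells grown as multi-cell spheroids with HUVEC endothelial cells and MSC fibroblast-like stroma were treated with targeted agents combined with inavolisib, alpelisib, duvelisib or copanlisib. Doses fell in half-log steps from near clinical Cmax, else from 10 microM. Viability was measured.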

[1] = second compound 0.00316 µM, first compound 0.0316 µM
[2] = second compound 0.00316 µM, first compound 0.1 µM
[3] = second compound 0.01 µM, first compound 0.0316 µM
[4] = second compound 0.01 µM, first compound 0.1 µM
[5] = second compound 0.0316 µM, first compound 0.0316 µM
[6] = second compound 0.0316 µM, first compound 0.1 µM
[7] = second compound 0.1 µM, first compound 0.0316 µM
[8] = second compound 0.1 µM, first compound 0.1 µM
[9] = second compound 0.316 µM, first compound 0.0316 µM
[10] = second compound 0.316 µM, first compound 0.1 µM
[11] = second compound 1 µM, first compound 0.0316 µM
[12] = second compound 1 µM, first compound 0.1 µM
[13] = second compound 0.00316 µM, first compound 0.316 µM
[14] = second compound 0.00316 µM, first compound 1 µM
[15] = second compound 0.00316 µM, first compound 3.16 µM
[16] = second compound 0.00316 µM, first compound 10 µM
[17] = second compound 0.01 µM, first compound 0.316 µM
[18] = second compound 0.01 µM, first compound 1 µM
[19] = second compound 0.01 µM, first compound 3.16 µM
[20] = second compound 0.01 µM, first compound 10 µM
[21] = second compound 0.0316 µM, first compound 0.316 µM
[22] = second compound 0.0316 µM, first compound 1 µM
[23] = second compound 0.0316 µM, first compound 3.16 µM
[24] = second compound 0.0316 µM, first compound 10 µM
[25] = second compound 0.1 µM, first compound 0.316 µM
[26] = second compound 0.1 µM, first compound 1 µM
[27] = second compound 0.1 µM, first compound 3.16 µM
[28] = second compound 0.1 µM, first compound 10 µM
[29] = second compound 0.316 µM, first compound 0.316 µM
[30] = second compound 0.316 µM, first compound 1 µM
[31] = second compound 0.316 µM, first compound 3.16 µM
[32] = second compound 0.316 µM, first compound 10 µM
[33] = second compound 1 µM, first compound 0.316 µM
[34] = second compound 1 µM, first compound 1 µM
[35] = second compound 1 µM, first compound 3.16 µM
[36] = second compound 1 µM, first compound 10 µM
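Note: spheroids exposed to compounds for 7 days.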

With `CC(C)n1nc(-c2ccc3oc(N)nc3c2)c2c(N)ncnc21` + COc1c(OCCCN2CCOCC2)ccc2c3n(c(=NC(=O)c4cnc(N)nc4)nc12)CCN3 the IC50 (second compound 0.00316 µM) was 0.0118 µM, the IC50 (second compound 0.01 µM) was 0.00134 µM and the IC50 (second compound 0.0316 µM) was less than 0.000316 µM. For the same molecule, the IC50 (second compound 0.1 µM) was less than 0.000316 µM, the IC50 (second compound 0.316 µM) was less than 0.000316 µM and the IC50 (second compound 1 µM) was less than 0.000316 µM. It also gave a viability, T/C (second compound 0.00316 µM, first compound 0.000316 µM) of 66.9%, a viability, T/C (second compound 0.00316 µM, first compound 0.001 µM) of 47.5% and a viability, T/C (second compound 0.00316 µM, first compound 0.00316 µM) of 74.6%. It also gave a viability, T/C (second compound 0.00316 µM, first compound 0.01 µM) of 51.4%, a viability, T/C [1] of 27.4% and a viability, T/C [2] of 12.1%. It also gave a viability, T/C (second compound 0.01 µM, first compound 0.000316 µM) of 48.1%, a viability, T/C (second compound 0.01 µM, first compound 0.001 µM) of 56.3% and a viability, T/C (second compound 0.01 µM, first compound 0.00316 µM) of 46.8%. It also gave a viability, T/C (second compound 0.01 µM, first compound 0.01 µM) of 32.2%, a viability, T/C [3] of 21.7% and a viability, T/C [4] of 10.8%. The viability, T/C (second compound 0.0316 µM, first compound 0.000316 µM) was 25.7%, the viability, T/C (second compound 0.0316 µM, first compound 0.001 µM) was 22.9% and the viability, T/C (second compound 0.0316 µM, first compound 0.00316 µM) was 24%. The viability, T/C (second compound 0.0316 µM, first compound 0.01 µM) was 19.4%, the viability, T/C [5] was 16.4% and the viability, T/C [6] was 9.19%. It also gave a viability, T/C (second compound 0.1 µM, first compound 0.000316 µM) of 16.6%, a viability, T/C (second compound 0.1 µM, first compound 0.001 µM) of 14.2% and a viability, T/C (second compound 0.1 µM, first compound 0.00316 µM) of 14%. For the same molecule, the viability, T/C (second compound 0.1 µM, first compound 0.01 µM) was 13.6%, the viability, T/C [7] was 10.3% and the viability, T/C [8] was 5.04%. The viability, T/C (second compound 0.316 µM, first compound 0.000316 µM) was 8.4%, the viability, T/C (second compound 0.316 µM, first compound 0.001 µM) was 7.74% and the viability, T/C (second compound 0.316 µM, first compound 0.00316 µM) was 6.9%. It also gave a viability, T/C (second compound 0.316 µM, first compound 0.01 µM) of 6.3%, a viability, T/C [9] of 4.52% and a viability, T/C [10] of 2.1%. It also gave a viability, T/C (second compound 1 µM, first compound 0.000316 µM) of 4.2%, a viability, T/C (second compound 1 µM, first compound 0.001 µM) of 4.04% and a viability, T/C (second compound 1 µM, first compound 0.00316 µM) of 3.72%. The viability, T/C (second compound 1 µM, first compound 0.01 µM) was 3.28%, the viability, T/C [11] was 3.57% and the viability, T/C [12] was 2.22%.

In the case of `CCCS(=O)(=O)Nc1ccc(F)c(C(=O)c2c[nH]c3ncc(-c4ccc(Cl)cc4)cc23)c1F` + COc1c(OCCCN2CCOCC2)ccc2c3n(c(=NC(=O)c4cnc(N)nc4)nc12)CCN3, the IC50 (second compound 0.00316 µM) is reported as 4.61 µM, the IC50 (second compound 0.01 µM) is reported as 3.02 µM and the IC50 (second compound 0.0316 µM) is reported as less than 0.0316 µM. For the same molecule, the IC50 (second compound 0.1 µM) was less than 0.0316 µM, the IC50 (second compound 0.316 µM) was less than 0.0316 µM and the IC50 (second compound 1 µM) was less than 0.0316 µM. For the same molecule, the viability, T/C [1] was 66.6%, the viability, T/C [2] was 77.1% and the viability, T/C [13] was 103%. It also gave a viability, T/C [14] of 83.7%, a viability, T/C [15] of 72.4% and a viability, T/C [16] of 4.06%. The viability, T/C [3] was 46.7%, the viability, T/C [4] was 71.3% and the viability, T/C [17] was 70.8%. For the same molecule, the viability, T/C [18] was 91.2%, the viability, T/C [19] was 49.1% and the viability, T/C [20] was 4.19%. For the same molecule, the viability, T/C [5] was 25.7%, the viability, T/C [6] was 40.4% and the viability, T/C [21] was 27.9%. For the same molecule, the viability, T/C [22] was 33.9%, the viability, T/C [23] was 31.7% and the viability, T/C [24] was 5.4%. It also gave a viability, T/C [7] of 24.7%, a viability, T/C [8] of 18.1% and a viability, T/C [25] of 22%. The viability, T/C [26] was 26.3%, the viability, T/C [27] was 22.1% and the viability, T/C [28] was 4.42%. It also gave a viability, T/C [9] of 7.13%, a viability, T/C [10] of 9.16% and a viability, T/C [29] of 10.6%. The viability, T/C [30] was 13.5%, the viability, T/C [31] was 13.9% and the viability, T/C [32] was 4.25%. For the same molecule, the viability, T/C [11] was 4.51%, the viability, T/C [12] was 3.63% and the viability, T/C [33] was 4.99%. The viability, T/C [34] was 5.37%, the viability, T/C [35] was 7.06% and the viability, T/C [36] was 2.69%.

`CNC(=O)c1ccc(N2C(=S)N(c3ccc(C#N)c(C(F)(F)F)c3)C(=O)C2(C)C)cc1F` + COc1c(OCCCN2CCOCC2)ccc2c3n(c(=NC(=O)c4cnc(N)nc4)nc12)CCN3 showed an IC50 (second compound 0.00316 µM) of 8.99 µM, an IC50 (second compound 0.01 µM) of less than 0.0316 µM and an IC50 (second compound 0.0316 µM) of less than 0.0316 µM. For the same molecule, the IC50 (second compound 0.1 µM) was less than 0.0316 µM, the IC50 (second compound 0.316 µM) was less than 0.0316 µM and the IC50 (second compound 1 µM) was less than 0.0316 µM. The viability, T/C [1] was 71.2%, the viability, T/C [2] was 80.3% and the viability, T/C [13] was 40.8%. For the same molecule, the viability, T/C [14] was 63.6%, the viability, T/C [15] was 66.3% and the viability, T/C [16] was 42.7%. The viability, T/C [3] was 33.4%, the viability, T/C [4] was 46.7% and the viability, T/C [17] was 51.3%. It also gave a viability, T/C [18] of 48.2%, a viability, T/C [19] of 45.4% and a viability, T/C [20] of 39.7%. The viability, T/C [5] was 33.8%, the viability, T/C [6] was 29.1% and the viability, T/C [21] was 29.9%. The viability, T/C [22] was 27.3%, the viability, T/C [23] was 23% and the viability, T/C [24] was 22.4%. The viability, T/C [7] was 16.1%, the viability, T/C [8] was 13.9% and the viability, T/C [25] was 14.9%. It also gave a viability, T/C [26] of 15%, a viability, T/C [27] of 15.4% and a viability, T/C [28] of 15.3%. For the same molecule, the viability, T/C [9] was 8.96%, the viability, T/C [10] was 8.69% and the viability, T/C [29] was 7.55%. The viability, T/C [30] was 9.53%, the viability, T/C [31] was 7.67% and the viability, T/C [32] was 8.88%. It also gave a viability, T/C [11] of 4.12%, a viability, T/C [12] of 4.26% and a viability, T/C [33] of 4.87%. For the same molecule, the viability, T/C [34] was 4.38%, the viability, T/C [35] was 5.02% and the viability, T/C [36] was 5.37%.
